{"source": "patent US20250127889A1", "about": "“IMMUNOSTIMULATORY COMPOSITION” (Reiko SHINKURA, priority 2021, published 2025)", "molecules": {"B1": {"name": "BAFF: B-cell activating factor, mimics interaction with DCs (protein, UniProt Q9WU72 127-309, looked up)", "Tumor necrosis factor ligand …": "AFQGPEETEQDVDLSAPPAPCLPGCRHSQHDDNGMNLRNIIQDCLQLIADSDTPTIRKGTYTFVPWLLSFKRGNALEEKENKIVVRQTGYFFIYSQVLYTDPIFAMGHVIQRKKVHVFGDELSLVTLFRCIQNMPKTLPNNSCYSAGIARLEEGDEIQLAIPRENAQISRNGDDTFFGALKLL"}}, "key": {"[1]": {"system": "CD11b expression in splenic naive B cells", "experiment": "Stimulation of splenic naive B cells in vitro, CD11b expression by flow cytometry", "type": "cell-based, Balb/c mice", "experimental": "(§1) Splenic B cells were negatively sorted from the spleens of 8-week-old Balb/c mice using a B cell isolation kit (Miltenyi Biotec B.V. & Co. KG). The splenic B cells (concentration: 5×10^5/ml) were cultured in RPMI1640 medium, and 13 types of independent stimuli were each applied thereto. Anti-mouse IgM (15 μg/ml; Jackson ImmunoResearch Laboratories Inc.) • 2. Anti-mouse-CD40 (HM40-3, 500 ng/ml; manufactured by BioLegend, Inc.) • 3. BAFF (50 ng/ml; BioLegend, Inc.) • 4. Pam3CSK4 (1 μg/ml, InvivoGen) • 5. Poly I:C (25 ng/ml, InvivoGen) • 6. LPS (50 ng/ml, Sigma-Aldrich, Inc.) • 7. Flagellin (20 ng/ml, Sigma-Aldrich, Inc.) • 8. Imiquimod (R837, 5 ng/ml; InvivoGen) • 9. CpG (20 μg/ml, GeneDsign Inc.) • 10. […] Heat-killed S. enterica (10^8 CFU/ml) • 12. Heat-killed B. bifidum (10^7 CFU/ml) • 13. Heat-killed B. breve (10^7 CFU/ml)\nFor MDP stimulation, purified splenic B cells (5×10^5/ml) were cultured in RPMI1640 medium supplemented with N-acetylmuramyl-L-alanyl-D-isoglutamine hydrate (1 μg/ml; Sigma-Aldrich Inc.)."}, "splenic naive B cells": {"system": "splenic naive B cells", "experiment": "B cell proliferation / number after in vitro stimulation", "type": "cell-based, Balb/c mice", "conditions": "compared to B cells stimulated with anti-IgM, anti-CD40, BAFF, poly I:C, flagellin, imiquimod", "experimental": "as §1"}, "itgam (CD11b)": {"system": "itgam (CD11b)", "experiment": "qPCR analysis of itgam in B cells after stimulation", "type": "cell-based, Balb/c mice", "experimental": "About 1×10^4 PP GC B cells (PNA^hiB220^+ cells) and about 1×10^4 non-GC PP B cells (PNA^loB220^+) were each sorted. RNAs were extracted from the isolated cells using NucleoSpin RNA XS (Takara Bio Inc.), and cDNAs were synthesized using GoScript (registered trademark) Reverse Transcriptase (Promega Corporation). Using KAPA SYBR (registered trademark) FAST qPCR Master Mix (2×) Kit (Kapa Biosystems, Inc.), real-time PCR was performed in triplicate on an optical 384-well PCR plate (F. Hoffmann-La Roche Ltd) using LightCycler 480 (F. Hoffmann-La Roche Ltd). Gene expression levels were normalized to the expression level of the housekeeping gene β-actin. The following primers were used for the analysis.\nSplenic B cells were negatively sorted from the spleens of 8-week-old Balb/c mice using a B cell isolation kit (Miltenyi Biotec B.V. & Co. KG). The splenic B cells (concentration: 5×10^5/ml) were cultured in RPMI1640 medium, and 13 types of independent stimuli were each applied thereto. Anti-mouse IgM (15 μg/ml; Jackson ImmunoResearch Laboratories Inc.) • 2. Anti-mouse-CD40 (HM40-3, 500 ng/ml; manufactured by BioLegend, Inc.) • 3. BAFF (50 ng/ml; BioLegend, Inc.) • 4. Pam3CSK4 (1 μg/ml, InvivoGen) • 5. Poly I:C (25 ng/ml, InvivoGen) • 6. LPS (50 ng/ml, Sigma-Aldrich, Inc.) • 7. Flagellin (20 ng/ml, Sigma-Aldrich, Inc.) • 8. Imiquimod (R837, 5 ng/ml; InvivoGen) • 9. […]"}, "PP GC": {"system": "PP GC", "experiment": "In vivo imaging of transplanted iGB cells induced by pre-stimulation (entry into PP GC)", "set-up": "species or system Balb/c mice", "conditions": "splenic naive B cells pre-stimulated 3 days, cultured on 40LB cells 4 days, injected i.v.", "experimental": "Then, 1×10^5 B220^+ B cells were isolated from the stimulated cells, and subsequently, the cells were seeded onto 40LB feeder cells supplemented with rIL-4 (1 ng/ml; BioLegend, Inc.) to induce iGB cells. As a control group, splenic naive B cells not subjected to stimulation were seeded onto the 40LB feeder cells supplemented with rIL-4 (1 ng/ml; BioLegend, Inc.). After culturing for 4 days, naive B-40LB cells, pam3CSK4-40LB cells, E. coli-40LB, IgM-40LB, and CpG-40LB cells of 3×10^5 iGB cells (B220^+) were isolated, labeled with CellTracker Orange CMTMR fluorescent dye (Invitrogen Corporation), and then separately injected intravenously into mice (Balb/c, 8 to 12 weeks old) together with 10 μg of AF488 anti-mouse MAdCAM-1 (BioLegend, Inc. mAb MECA-367) to identify HEV. Under anesthesia, 1 μg of AF647 anti-mouse IgA (Southern Biotech) was directly injected into the PPs of the same mice into which iGB cells were transferred, to stain the IgA^+ cells for GC identification. Localization of intravenously injected labeled iGB cells was observed using a microscope LSM880 (Carl Zeiss AG) and ZEN 2009 (Carl Zeiss AG) analysis software."}, "OVA-specific IgA": {"system": "OVA-specific IgA", "experiment": "Oral immunization with OVA plus adjuvant, ELISA of OVA-specific IgA in stools", "type": "in vivo, mice", "conditions": "OVA 1 mg with or without adjuvant on Day 0 and Day 16, stools Day 21", "experimental": "Stools were collected on Day 21, and OVA-specific antibody measurement was performed by enzyme-linked immunosorbent assay (ELISA).\nThe stools were suspended in 10-times weight/volume (w/v) PBS. After performing centrifugation (8,000 g, 15 minutes), the supernatant was collected as a fecal extract. A plate was precoated with 1 mg/ml OVA overnight, followed by blocking with PBS containing 1% (w/v) bovine serum albumin at room temperature for 1 hour. Then, a serially diluted fecal extract was added to the plate, and the plate was incubated at room temperature for 1 hour. Relative avidity of IgA was detected using alkaline phosphatase-labeled goat anti-mouse IgA (manufactured by Southern Biotech). After incubation overnight at 4° C., optical density (OD) values at 405 nm were measured using TriStar Multimode Reader LB 942 (manufactured by Berthold Technologies GmbH & Co. KG)."}, "[2]": {"system": "PNAhighB220+ PP GC B cells", "experiment": "Oral administration of heat-killed bacteria or pam3CSK4 to WT mice, PP GC B cells after 2 days", "conditions": "within 2 days", "method": "Mice orally administered with 100 μl of PBS were prepared as controls. 2 days later, the PPs of these mice were excised, and B cells in the GCs were analyzed using Spectral Cell Analyzer SA3800 (Sony Biotechnology Inc.), as described above."}, "[3]": {"system": "CD11b expression in splenic B cells", "experiment": "CD11b expression in stimulated splenic B cells in the presence of TLR and NOD2 inhibitors", "type": "cell-based, Balb/c mice"}, "TNF-α": {"system": "TNF-α", "experiment": "Oral adjuvant with OVA as antigen, serum TNF-α ELISA", "type": "in vivo, C57BL/6 mice", "conditions": "oral immunization with OVA 1 mg 3 times every 2 weeks, blood on second day after third immunization", "experimental": "Serum TNF-α levels were measured in accordance with the protocol of mouse TNF-α ELISA kit (Invitrogen Corporation, BMS607-3)."}}, "data": [{"molecule": "pam3CSK4", "values": [{"measurement": "proportion of CD11b+ B cells in stimulated B cells", "setting": "[1]; splenic naive B cells, 3 days stimulation", "value": 27.6, "unit": "%"}, {"measurement": "number of B cells after 3 days of culturing", "setting": "splenic naive B cells", "value": "significantly increased"}, {"measurement": "expression of itgam (CD11b) in B cells", "setting": "itgam (CD11b)", "value": "increased"}, {"measurement": "entry into GC of iGB cells stimulated in advance, after intravenous injection into mice", "setting": "PP GC", "value": "most of the cells entered GC"}, {"measurement": "OVA-specific IgA in the stools", "setting": "OVA-specific IgA", "value": "increased"}, {"measurement": "number of PP GC B cells", "setting": "[2]", "value": "increased"}, {"measurement": "proportion of PP GC B cells", "setting": "[2]", "value": "increased"}]}, {"molecule": "CCOC(=O)C1=CCCC[C@H]1S(=O)(=O)Nc1ccc(F)cc1Cl", "note": "[TLR4 inhibitor]", "values": [{"measurement": "proportion of CD11b+ B cells stimulated with pam3CSK4 and heat-killed E. coli when inhibitor was used", "setting": "[3]; inhibitor 1 μM, pam3CSK4 1 μg/ml, heat-killed E. coli 10^7 CFU/ml", "value": "did not increase"}]}, {"molecule": "CN(CCc1nc2ccccc2n1CC(=O)Nc1ccc2c(c1)CCC2)C(=O)c1ccccc1", "note": "[NOD2 inhibitor]", "values": [{"measurement": "CD11b expression in B cells stimulated with pam3CSK4 and heat-killed E. coli with inhibitor", "setting": "[3]; NOD2 inhibitor 30 μM", "value": "strongly suppressed"}]}, {"molecule": "OVA: ovalbumin, orally administered model antigen", "values": [{"measurement": "OVA-specific IgA in the stools", "setting": "OVA-specific IgA", "value": "did not increase"}]}, {"molecule": "N-acetylmuramyl-L-alanyl-D-isoglutamine hydrate [MDP]", "values": [{"measurement": "induction of CD11b expression by NOD2 ligand", "setting": "[1]; purified splenic B cells, MDP 1 μg/ml", "value": "did not induce"}]}, {"molecule": "CpG-ODN1826", "values": [{"measurement": "serum TNFα concentration", "setting": "TNF-α", "value": "cause increase"}]}, {"molecule": "B1", "values": [{"measurement": "induction of CD11b expression in naive splenic B cells", "setting": "[1]; in vitro stimulation, 3 days culture, flow cytometry", "value": "did not induce"}]}]}
